Measured values taken from the NIST ThermoML archive (doi:10.1016/j.tca.2018.04.002).
Numbers after ± are expanded uncertainties.

Experiments:
[1] = Crystal
[2] = Molar enthalpy of transition or fusion; details: Crystal; DSC

Structure (SMILES): CCCCCCCCCCCC(=O)O [dodecanoic acid]
- thermal conductivity ([1]; 296.15 K, 101.33 kPa, Hot disk method): 0.394 ± 0.081 W/m/K
- Triple point temperature ([1]; DSC): 320.35 ± 4.1 K
- Molar enthalpy of transition or fusion [2]: 43.4 ± 8.7 kJ/mol
